Assay results taken from US20230011869A1 (Hoffmann-La Roche Inc., priority 2018, published 2023).
Counter-ions that a name gives are not always drawn.

These compounds were tested on Acinetobacter baumannii ATCC17978 (assay: Antimicrobial susceptibility testing: 90% growth inhibitory concentration (IC90) determination, Iso-Sensitest broth). Conditions: 90% growth inhibitory concentration, Acinetobacter baumannii ATCC17978, Iso-Sensitest broth, OD 600 nm over 16 h; read-out: ATCC17978 IC90.
Assay type: cell-based
Summary of the method: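 A. baumannii ATCC17978 grown in Iso-Sensitest broth across 10 compound concentrations at 35±2 °C.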
Compound `COc1ccc(-c2cnc3c(Nc4ccc(C(=O)N5CCN(C(=O)[C@H]6CCNC[C@@H]6O)CC5)c(C)c4)nccn23)c(Cl)c1F` [Example 219, [4-[[3-(2-chloro-3-fluoro-4-methoxy-phenyl)imidazo[1,2-a]pyrazin-8-yl]amino]-2-methyl-phenyl]-[4-[(3R,4S)-3-hydroxypiperidine-4-carbonyl]piperazin-1-yl]methanone formate] has an IC90 of 220 nM. `CNCC(=O)N1CCN(C(=O)c2ccc(Nc3nccn4c(-c5ccc(OC)c(F)c5)cnc34)cc2C)CC1` [Example 224, 1-(4-(4-((3-(3-fluoro-4-methoxyphenyl)imidazo[1,2-a]pyrazin-8-yl)amino)-2-methylbenzoyl)piperazin-1-yl)-2-(methylamino) ethanone hydrochloride] was tested, and the IC90 was 180 nM. In the case of `Cc1cc(Nc2nccn3c(-c4ccc(OC(F)F)cc4)cnc23)ccc1C(=O)N1CCN(C(=O)CCNC(=N)N)CC1` [Example 225, 1-(3-(4-(4-((3-(4-(difluoromethoxy)phenyl)imidazo[1,2-a]pyrazin-8-yl)amino)-2-methylbenzoyl)piperazin-1-yl)-3-oxopropyl)guanidine], the IC90 is reported as 260 nM. `Cc1cc(Nc2nccn3c(-c4ccc(OC(F)F)cc4)cnc23)ccc1C(=O)N1CCN(C(=O)[C@H](C)N)CC1` [Example 226, (2S)-2-amino-1-[4-[4-[[3-4-(difluoromethoxy)phenyl]imidazo[1,2-a]pyrazin-8-yl]amino]-2-methyl-benzoyl]piperazin-1-yl]propan-1-one hydrochloride] gave an IC90 of 520 nM. `Cc1cc(Nc2nccn3c(-c4ccc(OCC#N)c(F)c4F)cnc23)ccc1C(=O)N1CCN(C(=O)[C@@H]2C[C@](C)(O)CN2)CC1` [Example 230, 2-[2,3-difluoro-4-[8-[4-[4-[(2S,4S)-4-hydroxy-4-methyl-pyrrolidine-2-carbonyl]piperazine-1-carbonyl]-3-methyl-anilino]imidazo[1,2-a]pyrazin-3-yl]phenoxy] acetonitrile formate] showed an IC90 of 63 nM. `CC[C@]1(O)CN[C@H](C(=O)N2CCN(C(=O)c3ccc(Nc4nccn5c(-c6ccc(OCC#N)c(F)c6F)cnc45)cc3C)CC2)C1` [Example 232, 2-[4-[8-[4-[4-[(2S,4R)-4-ethyl-4-hydroxy-pyrrolidine-2-carbonyl]piperazine-1-carbonyl]-3-methyl-anilino]imidazo[1,2-a]pyrazin-3-yl]-2,3-difluoro-phenoxy]acetonitrile formate] was tested, and the IC90 was 83 nM. With `Cc1cc(Nc2nccn3c(-c4ccc(OC(C)C#N)c(F)c4F)cnc23)ccc1C(=O)N1CCN(CCCN(C)C)CC1` (stereo not shown) [Example 237, 2-[4-[8-[4-[4-[3-(dimethylamino)pro-pyl]piperazine-1-carbonyl]-3-methyl-anilino]imidazo[1,2-a]pyrazin-3-yl]-2,3-difluoro-phenoxy]propanenitrile formate] the IC90 was 370 nM. `Cc1cc(Nc2nccn3c(-c4ccc(OC(C)C#N)c(F)c4F)cnc23)ccc1C(=O)N1CCN(CCN(C)C)CC1` (stereo not shown) [Example 238, 2-[4-[8-[4-[4-[2-(dimethylamino)ethyl]piperazine-1-carbonyl]-3-methyl-anilino]imidazo[1,2-a]pyrazin-3-yl]-2,3-difluoro-phenoxy]propanenitrile; 2,2,2-trifluoroacetic acid] gave an IC90 of 210 nM. `Cc1cc(Nc2nccn3c(-c4ccc(O[C@@H](C)C#N)c(F)c4F)cnc23)ccc1C(=O)N1CCN(CCN(C)C)CC1` [Example 240, ((2S)-2-[4-[8-[4-[4-[2-(dimethylamino)ethyl]piperazine-1-carbonyl]-3-methyl-anilino]imidazo[1,2-a]pyrazin-3-yl]-2,3-difluoro-phenoxy]propanenitrile formate] showed an IC90 of 110 nM. With `CCc1cc(Nc2nccn3c(-c4ccc(OC)c(F)c4)cnc23)ccc1C(=O)N1CCC(C(=O)O)CC1` [Example 241, 1-(2-Ethyl-4-((3-(3-fluoro-4-methoxyphenyl)imidazo[1,2-a]pyrazin-8-yl)amino)benzoyl)piperidine-4-carboxylic acid] the IC90 was 2200 nM. In the case of `CNCCCNC(=O)C1CCN(C(=O)c2ccc(Nc3nccn4c(-c5ccc(OCC#N)c(F)c5F)cnc34)cc2C)CC1` [Example 242, 1-(4-((3-(4-(cyanomethoxy)-2,3-difluorophenyl)imidazo[1,2-a]pyrazin-8-yl)amino)-2-methylbenzoyl)-N-(3-(methylamino)propyl)piperidine-4-carboxamide], the IC90 is reported as 170 nM. `Cc1cc(Nc2nccn3c(-c4ccc(OC(F)F)cc4)cnc23)ccc1C(=O)N1CCN(C(=O)Nc2ccncc2)CC1` [Example 245, 4-[4-[[3-[4-(difluoromethoxy)phenyl]imidazo[1,2-a]pyrazin-8-yl]amino]-2-methyl-benzoyl]-N-(4-pyridyl)piperazine-1-carboxamide] gave an IC90 of 120 nM. With `Cc1cc(Nc2nccn3c(-c4ccc(OCC#CCO)c(F)c4)cnc23)ccc1C(=O)N1CCC(CCN)CC1` [Example 246, [4-(2-aminoethyl)-1-piperidyl]-[4-[[3-[3-fluoro-4-(4-hydroxybut-2-ynoxy)phenyl]imidazo[1,2-a]pyrazin-8-yl]amino]-2-methyl-phenyl]methanone] the IC90 was 92 nM. With `COc1ccc(-c2cnc3c(Nc4ccc(C(=O)N5CCCC(CN(C)C)C5)c(C)c4)nccn23)cc1F` (stereo not shown) [Example 252, [3-[(dimethylamino)methyl]pi-peridin-1-yl]-[4-[[3-(3-fluoro-4-methoxyphenyl)imidazo[1,2-a]pyrazin-8-yl]amino]-2-methylphenyl]methanone] the IC90 was 2000 nM. In the case of `COc1ccc(-c2cnc3c(Nc4ccc(C(=O)N5CCCCC5CN(C)C)c(C)c4)nccn23)cc1F` (stereo not shown) [Example 253, [2-[(dimethylamino)methyl]pi-peridin-1-yl]-[4-[[3-(3-fluoro-4-methoxyphenyl)imidazo[1,2-a]pyrazin-8-yl]amino]-2-methylphenyl]methanone; for-mic acid], the IC90 is reported as 6700 nM.

Same assay, conditions: Acinetobacter baumannii, ATCC17978, 16 h, read-out: ATCC17978 IC90, 90% growth inhibitory concentration, Acinetobacter baumannii ATCC17978, Iso-Sensitest broth, OD 600 nm over 16 h
In the case of `Cc1cc(Nc2nccn3c(-c4ccc(O[C@H](C)C#N)c(F)c4F)cnc23)ccc1C(=O)N1CCN(CCN(C)C)CC1` [Example 239, (2R)-2-[4-[8-[4-[4-[2-(dimethylamino)ethyl]piperazine-1-carbonyl]-3-methyl-anilino]imidazo[1,2-a]pyrazin-3-yl]-2,3-difluoro-phenoxy]propanenitrile formate], the IC90 is reported as 790 nM. `Cc1cc(Nc2nccn3c(-c4ccc(OCC#CCN)c(F)c4)cnc23)ccc1C(=O)N1CCC(CN)CC1` [Example 247, [4-[[3-[4-(4-aminobut-2-ynoxy)-3-fluoro-phenyl]imidazo[1,2-a]pyrazin-8-yl]amino]-2-methyl-phenyl]-[4-(aminomethyl)-1-piperidyl]methanone; formic acid] was tested, and the IC90 was 870 nM. Work on `Cc1cc(Nc2nccn3c(-c4ccc(OC(F)F)cc4)cnc23)ccc1C(=O)N1CCN(C(=O)[C@H]2C[C@@H](N)C2)CC1` [Example 249, [4-(3-aminocyclobutanecarbonyl)piperazin-1-yl]-[4-[[3-[4-(difluoromethoxy)phenyl]imidazo[1,2-a]pyrazin-8-yl]amino]-2-methyl-phenyl]methanone hydrochloride] yielded an IC90 of 180 nM. `Cc1cc(Nc2nccn3c(-c4ccc(OC(F)F)cc4)cnc23)ccc1C(=O)N1CCN(C(=O)[C@H]2C[C@H](N)C2)CC1` [Example 250, [4-(3-aminocyclobutanecarbonyl)piperazin-1-yl]-[4-[[3-[4-(difluoromethoxy)phenyl]imidazo[1,2-a]pyrazin-8-yl]amino]-2-methyl-phenyl]methanone hydrochloride] was tested, and the IC90 was 160 nM.
